The values that follow come from ChEMBL document CHEMBL5715954, “Silencing c-Myc translation as a therapeutic strategy through targeting PI3Kδ and CK1ε in hematological malignancies” (Blood, 2017).

Structures are written as SMILES.

Parameters in all cases: scale not given: the % may be the effect or the level left
The target in assay [1] is Tyrosine-protein kinase Fes/Fps (Homo sapiens) (UniProt P07332). Briefly: Inhibition of human FES/FPS assessed as enzyme activity at 1 uM using poly[Glu:Tyr] (4:1) as substrate preincubated for 20 mins followed by [gamma-33P]-ATP addition and measured after 120 mins by radiometric Hot-SpotSM Kinase assay relative to control.
In assay [2] the target is T1, Serine/threonine-protein kinase haspin (Homo sapiens) (UniProt Q8TF76).
T1 sequence (whole entry): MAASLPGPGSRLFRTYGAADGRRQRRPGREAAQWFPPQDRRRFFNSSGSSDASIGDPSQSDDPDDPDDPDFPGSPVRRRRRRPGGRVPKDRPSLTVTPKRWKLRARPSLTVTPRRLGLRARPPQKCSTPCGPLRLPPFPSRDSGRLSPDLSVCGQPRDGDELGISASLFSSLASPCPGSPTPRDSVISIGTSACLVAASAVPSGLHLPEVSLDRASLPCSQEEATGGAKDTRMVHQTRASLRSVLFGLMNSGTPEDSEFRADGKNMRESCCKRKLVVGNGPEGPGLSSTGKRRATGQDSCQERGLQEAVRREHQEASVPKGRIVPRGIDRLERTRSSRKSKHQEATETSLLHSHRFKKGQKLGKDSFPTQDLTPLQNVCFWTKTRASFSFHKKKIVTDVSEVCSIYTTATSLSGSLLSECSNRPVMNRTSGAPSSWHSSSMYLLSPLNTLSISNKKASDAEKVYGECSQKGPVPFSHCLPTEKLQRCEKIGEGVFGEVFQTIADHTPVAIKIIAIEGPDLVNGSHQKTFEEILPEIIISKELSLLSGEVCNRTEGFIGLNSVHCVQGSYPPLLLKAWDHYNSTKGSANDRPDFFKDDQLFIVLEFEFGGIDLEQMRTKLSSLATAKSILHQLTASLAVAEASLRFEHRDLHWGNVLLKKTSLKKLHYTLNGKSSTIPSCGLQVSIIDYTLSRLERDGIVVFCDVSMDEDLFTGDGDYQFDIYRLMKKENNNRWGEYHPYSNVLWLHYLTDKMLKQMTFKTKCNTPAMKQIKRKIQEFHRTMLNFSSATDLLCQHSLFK
Description: Inhibition of human Haspin assessed as enzyme activity at 1 uM using histone H3 as substrate preincubated for 20 mins followed by [gamma-33P]-ATP addition and measured after 120 mins by radiometric Hot-SpotSM Kinase assay relative to control.

Assay [3] addresses T2, Serine/threonine-protein kinase LATS1 (Homo sapiens) (UniProt O95835).
T2 sequence (whole entry): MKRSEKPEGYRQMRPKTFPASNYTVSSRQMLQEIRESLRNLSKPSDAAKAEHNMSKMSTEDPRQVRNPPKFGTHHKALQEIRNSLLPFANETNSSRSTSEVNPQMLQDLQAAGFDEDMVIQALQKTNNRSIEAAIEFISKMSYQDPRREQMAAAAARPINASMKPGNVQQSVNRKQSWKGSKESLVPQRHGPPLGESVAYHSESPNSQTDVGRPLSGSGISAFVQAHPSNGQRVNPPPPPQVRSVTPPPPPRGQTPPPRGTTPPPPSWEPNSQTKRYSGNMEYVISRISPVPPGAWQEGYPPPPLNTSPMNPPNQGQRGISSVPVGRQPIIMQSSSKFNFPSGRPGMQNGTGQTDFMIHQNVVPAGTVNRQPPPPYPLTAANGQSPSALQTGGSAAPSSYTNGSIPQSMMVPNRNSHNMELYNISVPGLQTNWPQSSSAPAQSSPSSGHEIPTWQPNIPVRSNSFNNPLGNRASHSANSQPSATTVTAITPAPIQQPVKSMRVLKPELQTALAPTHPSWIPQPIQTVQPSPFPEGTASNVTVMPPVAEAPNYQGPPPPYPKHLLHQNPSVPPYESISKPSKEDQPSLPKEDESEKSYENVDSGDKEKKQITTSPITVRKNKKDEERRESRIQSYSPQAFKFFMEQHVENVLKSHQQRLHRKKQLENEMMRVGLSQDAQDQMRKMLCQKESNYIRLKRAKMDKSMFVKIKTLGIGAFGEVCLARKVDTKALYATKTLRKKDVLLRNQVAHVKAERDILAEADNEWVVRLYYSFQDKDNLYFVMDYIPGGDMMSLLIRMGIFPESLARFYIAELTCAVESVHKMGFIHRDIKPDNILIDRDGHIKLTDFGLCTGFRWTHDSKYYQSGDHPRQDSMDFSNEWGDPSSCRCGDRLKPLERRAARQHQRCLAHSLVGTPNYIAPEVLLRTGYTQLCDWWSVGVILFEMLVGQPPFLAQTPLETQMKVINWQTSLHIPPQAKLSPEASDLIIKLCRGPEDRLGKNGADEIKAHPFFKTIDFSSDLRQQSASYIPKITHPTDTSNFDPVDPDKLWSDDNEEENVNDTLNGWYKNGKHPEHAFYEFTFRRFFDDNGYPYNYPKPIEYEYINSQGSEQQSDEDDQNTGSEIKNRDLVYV
Description: Inhibition of human LATS1 assessed as enzyme activity at 1 uM using KKRNRRLSVA as substrate preincubated for 20 mins followed by [gamma-33P]-ATP addition and measured after 120 mins by radiometric Hot-SpotSM Kinase assay relative to control.

Assay [4] concerns the target Mitogen-activated protein kinase kinase kinase 21 (Homo sapiens) (UniProt Q5TCX8). Briefly: Inhibition of human MLK4 assessed as enzyme activity at 1 uM using MEK1 (K97R) as substrate preincubated for 20 mins followed by [gamma-33P]-ATP addition and measured after 120 mins by radiometric Hot-SpotSM Kinase assay relative to control.
For assay [5], the target named is Mitogen-activated protein kinase 14 (Homo sapiens) (UniProt Q16539). Briefly: Inhibition of human P38a assessed as enzyme activity at 1 uM using myelin basic protein as substrate preincubated for 20 mins followed by [gamma-33P]-ATP addition and measured after 120 mins by radiometric Hot-SpotSM Kinase assay relative to control.
The target of assay [6] is T3, Serine/threonine-protein kinase Sgk1 (Homo sapiens) (UniProt O00141).
T3 sequence (whole entry): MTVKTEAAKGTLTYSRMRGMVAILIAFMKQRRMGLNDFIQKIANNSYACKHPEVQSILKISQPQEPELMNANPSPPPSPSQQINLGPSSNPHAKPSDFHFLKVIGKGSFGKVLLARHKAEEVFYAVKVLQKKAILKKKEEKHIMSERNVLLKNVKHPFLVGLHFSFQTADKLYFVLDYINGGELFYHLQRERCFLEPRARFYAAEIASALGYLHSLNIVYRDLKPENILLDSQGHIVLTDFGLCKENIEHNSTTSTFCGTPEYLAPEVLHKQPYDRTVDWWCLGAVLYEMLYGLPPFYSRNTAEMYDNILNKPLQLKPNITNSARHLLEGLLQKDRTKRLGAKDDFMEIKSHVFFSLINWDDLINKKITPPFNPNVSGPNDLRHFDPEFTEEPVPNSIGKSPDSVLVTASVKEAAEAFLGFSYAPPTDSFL
Description: Inhibition of human SGK1 assessed as enzyme activity at 1 uM using KGSGSGRPRTSSFAEG as substrate preincubated for 20 mins followed by [gamma-33P]-ATP addition and measured after 120 mins by radiometric Hot-SpotSM Kinase assay relative to control.

Sequence of Mitogen-activated protein kinase kinase kinase 21 (Homo sapiens) (Q5TCX8 whole entry): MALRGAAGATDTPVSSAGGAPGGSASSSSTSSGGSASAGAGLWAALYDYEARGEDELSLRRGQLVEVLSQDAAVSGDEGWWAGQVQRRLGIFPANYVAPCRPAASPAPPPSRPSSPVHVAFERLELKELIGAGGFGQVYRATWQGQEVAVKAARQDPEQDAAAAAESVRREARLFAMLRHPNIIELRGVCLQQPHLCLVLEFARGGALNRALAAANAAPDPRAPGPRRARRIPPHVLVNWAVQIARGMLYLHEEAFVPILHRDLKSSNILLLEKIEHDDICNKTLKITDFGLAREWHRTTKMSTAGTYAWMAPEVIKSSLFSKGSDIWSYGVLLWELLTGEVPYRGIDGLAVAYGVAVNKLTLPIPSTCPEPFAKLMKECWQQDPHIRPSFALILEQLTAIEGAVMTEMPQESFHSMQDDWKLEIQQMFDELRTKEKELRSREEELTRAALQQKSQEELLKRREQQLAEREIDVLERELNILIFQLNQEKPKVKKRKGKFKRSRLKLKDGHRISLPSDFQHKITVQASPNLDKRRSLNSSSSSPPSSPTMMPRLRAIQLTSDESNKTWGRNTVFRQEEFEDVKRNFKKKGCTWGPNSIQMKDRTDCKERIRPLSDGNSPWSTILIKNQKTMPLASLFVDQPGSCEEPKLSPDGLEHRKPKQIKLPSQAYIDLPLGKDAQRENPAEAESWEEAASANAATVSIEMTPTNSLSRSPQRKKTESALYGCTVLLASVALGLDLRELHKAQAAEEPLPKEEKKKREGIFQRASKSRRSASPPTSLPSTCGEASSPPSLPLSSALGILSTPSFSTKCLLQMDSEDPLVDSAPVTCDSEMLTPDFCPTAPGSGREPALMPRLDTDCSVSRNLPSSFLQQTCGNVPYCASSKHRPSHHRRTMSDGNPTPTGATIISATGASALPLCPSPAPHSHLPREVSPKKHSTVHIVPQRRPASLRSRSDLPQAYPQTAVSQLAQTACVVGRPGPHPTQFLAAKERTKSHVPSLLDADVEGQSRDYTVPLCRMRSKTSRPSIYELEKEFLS
Sequence of Mitogen-activated protein kinase 14 (Homo sapiens) (Q16539 whole entry): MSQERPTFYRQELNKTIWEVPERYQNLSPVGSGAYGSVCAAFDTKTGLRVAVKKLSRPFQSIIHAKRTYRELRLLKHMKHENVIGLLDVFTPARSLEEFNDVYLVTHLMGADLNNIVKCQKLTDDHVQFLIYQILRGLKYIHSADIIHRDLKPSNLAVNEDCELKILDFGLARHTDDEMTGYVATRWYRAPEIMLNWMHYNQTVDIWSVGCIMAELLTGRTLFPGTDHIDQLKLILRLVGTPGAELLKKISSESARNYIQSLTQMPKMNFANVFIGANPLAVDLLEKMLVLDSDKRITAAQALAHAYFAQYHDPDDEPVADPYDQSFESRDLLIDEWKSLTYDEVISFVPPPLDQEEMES
Sequence of Tyrosine-protein kinase Fes/Fps (Homo sapiens) (P07332 whole entry): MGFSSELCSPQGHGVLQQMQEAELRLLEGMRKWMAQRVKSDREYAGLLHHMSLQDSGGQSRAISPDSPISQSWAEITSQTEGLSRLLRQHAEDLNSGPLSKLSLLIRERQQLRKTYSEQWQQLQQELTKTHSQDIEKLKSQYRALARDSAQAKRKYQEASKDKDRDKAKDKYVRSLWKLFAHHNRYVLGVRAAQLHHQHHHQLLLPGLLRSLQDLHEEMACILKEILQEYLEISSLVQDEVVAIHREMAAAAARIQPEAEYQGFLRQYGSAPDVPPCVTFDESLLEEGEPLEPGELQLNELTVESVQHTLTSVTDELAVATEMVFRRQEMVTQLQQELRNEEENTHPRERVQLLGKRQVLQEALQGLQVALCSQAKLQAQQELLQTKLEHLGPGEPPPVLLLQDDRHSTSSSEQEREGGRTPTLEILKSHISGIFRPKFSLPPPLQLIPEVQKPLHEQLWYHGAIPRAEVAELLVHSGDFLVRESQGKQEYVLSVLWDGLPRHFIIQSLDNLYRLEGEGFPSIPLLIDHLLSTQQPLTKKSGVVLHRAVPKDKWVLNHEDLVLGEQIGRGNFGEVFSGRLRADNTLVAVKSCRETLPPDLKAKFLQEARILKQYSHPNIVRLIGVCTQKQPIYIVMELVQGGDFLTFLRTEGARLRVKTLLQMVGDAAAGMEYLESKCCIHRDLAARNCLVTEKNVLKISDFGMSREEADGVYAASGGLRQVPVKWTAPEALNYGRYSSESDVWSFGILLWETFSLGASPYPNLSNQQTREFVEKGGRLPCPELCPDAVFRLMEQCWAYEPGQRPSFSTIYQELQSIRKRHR

With `C[C@H](Nc1ncnc2nc[nH]c12)c1cc2cccc(Cl)c2c(=O)n1-c1ccccc1`, the Activity in assay [1] came out at 95.6%; in assay [2] it was 96.5%; in assay [3] it was 99.8%; in assay [4], 93.5%; in assay [5], 94.5%; in assay [6], 102%.
On to `CC[C@H](Nc1ncnc2[nH]cnc12)c1nc2cccc(F)c2c(=O)n1-c1ccccc1`, for which the Activity in assay [1] was determined as 91.5%; in assay [2], 95.5%; in assay [3] it was 95.4%; in assay [4], 95.7%; in assay [5] it was 98.8%; in assay [6], 105%.
Take `CC(C)Oc1ccc(-c2nn([C@@H](C)c3oc4ccc(F)cc4c(=O)c3-c3cccc(F)c3)c3ncnc(N)c23)cc1F` [UMBRALISIB]: the Activity stood at 97.5% in assay [1]; 93.7% in assay [2]; 96.3% in assay [3]; 94.7% in assay [4]; 96.9% in assay [5]; 102% in assay [6].
